Data from article doi:10.1101/2020.06.11.145995v1 (biorxiv, 2020).
Like-named read-outs stand apart in the source and are kept apart here.

Assays:
Assay in all cases: biochemical
[1] = target: ABL1(M351T)-phosphorylated (Homo sapiens, UniProt P00519, M351T)
[2] = target: JAK2(JH1domain-catalytic) (Homo sapiens, UniProt O60674)
[3] = target: DYRK1B (Homo sapiens, UniProt Q9Y463)
[4] = target: LTK (Homo sapiens, UniProt P29376)
[5] = target: STK33 (Homo sapiens, UniProt Q9BYT3)
[6] = target: ABL1-nonphosphorylated (Homo sapiens, UniProt P00519)
[7] = target: JAK3(JH1domain-catalytic) (Homo sapiens, UniProt P52333)
Chain of JAK3(JH1domain-catalytic) (P52333 whole entry): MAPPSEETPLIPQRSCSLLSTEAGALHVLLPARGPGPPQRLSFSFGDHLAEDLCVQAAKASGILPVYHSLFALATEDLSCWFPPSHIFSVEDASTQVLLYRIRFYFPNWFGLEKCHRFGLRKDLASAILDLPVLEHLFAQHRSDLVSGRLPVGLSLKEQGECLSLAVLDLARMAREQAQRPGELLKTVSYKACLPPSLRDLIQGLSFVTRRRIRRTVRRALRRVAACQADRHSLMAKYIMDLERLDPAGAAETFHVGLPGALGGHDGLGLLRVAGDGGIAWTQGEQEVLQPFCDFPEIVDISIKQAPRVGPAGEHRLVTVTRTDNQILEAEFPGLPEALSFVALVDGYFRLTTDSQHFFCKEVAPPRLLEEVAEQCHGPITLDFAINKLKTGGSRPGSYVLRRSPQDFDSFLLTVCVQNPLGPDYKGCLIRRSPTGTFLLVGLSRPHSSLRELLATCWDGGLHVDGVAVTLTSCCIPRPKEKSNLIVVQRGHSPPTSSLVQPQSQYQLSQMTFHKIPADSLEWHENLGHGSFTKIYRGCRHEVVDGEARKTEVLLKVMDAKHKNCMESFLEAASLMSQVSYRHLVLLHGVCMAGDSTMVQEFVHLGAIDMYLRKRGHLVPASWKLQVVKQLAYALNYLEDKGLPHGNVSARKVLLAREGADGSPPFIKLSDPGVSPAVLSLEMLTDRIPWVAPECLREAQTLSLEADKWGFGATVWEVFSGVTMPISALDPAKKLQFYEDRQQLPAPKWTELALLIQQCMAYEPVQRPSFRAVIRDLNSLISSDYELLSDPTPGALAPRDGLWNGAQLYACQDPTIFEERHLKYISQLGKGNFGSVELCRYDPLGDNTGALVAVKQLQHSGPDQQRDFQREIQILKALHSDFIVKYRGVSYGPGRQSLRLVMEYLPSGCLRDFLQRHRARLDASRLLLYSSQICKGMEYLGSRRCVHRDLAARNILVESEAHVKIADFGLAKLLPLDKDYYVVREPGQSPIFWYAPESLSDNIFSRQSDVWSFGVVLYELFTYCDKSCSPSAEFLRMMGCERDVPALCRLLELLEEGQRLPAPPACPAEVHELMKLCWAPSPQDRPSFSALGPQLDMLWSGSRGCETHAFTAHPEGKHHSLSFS

[8] = target: MST3 (Homo sapiens, UniProt Q9Y6E0)
[9] = target: FLT3(D835H) (Homo sapiens, UniProt P36888, D835H)
[10] = target: FRK (Homo sapiens, UniProt P42685)
Chain of FRK (P42685 whole entry): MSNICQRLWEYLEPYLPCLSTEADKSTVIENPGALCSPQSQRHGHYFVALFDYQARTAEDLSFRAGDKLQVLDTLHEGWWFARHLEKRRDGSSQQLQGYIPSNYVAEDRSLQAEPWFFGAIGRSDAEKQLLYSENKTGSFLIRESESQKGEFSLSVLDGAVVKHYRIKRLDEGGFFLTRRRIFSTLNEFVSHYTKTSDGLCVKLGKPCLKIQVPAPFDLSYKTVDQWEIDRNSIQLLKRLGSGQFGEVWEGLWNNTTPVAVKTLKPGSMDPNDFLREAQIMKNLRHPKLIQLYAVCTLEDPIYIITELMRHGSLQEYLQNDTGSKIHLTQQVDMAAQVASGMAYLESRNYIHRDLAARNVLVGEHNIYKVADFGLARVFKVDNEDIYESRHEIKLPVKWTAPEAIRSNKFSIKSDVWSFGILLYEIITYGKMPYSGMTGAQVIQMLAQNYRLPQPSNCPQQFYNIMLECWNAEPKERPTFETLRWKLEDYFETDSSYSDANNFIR

[11] = target: IGF1R (Homo sapiens, UniProt P08069)
[12] = target: KIT(V559D) (Homo sapiens, UniProt P10721, V559D)
[13] = target: DAPK3 (Homo sapiens, UniProt O43293)
Chain of DAPK3 (O43293 whole entry): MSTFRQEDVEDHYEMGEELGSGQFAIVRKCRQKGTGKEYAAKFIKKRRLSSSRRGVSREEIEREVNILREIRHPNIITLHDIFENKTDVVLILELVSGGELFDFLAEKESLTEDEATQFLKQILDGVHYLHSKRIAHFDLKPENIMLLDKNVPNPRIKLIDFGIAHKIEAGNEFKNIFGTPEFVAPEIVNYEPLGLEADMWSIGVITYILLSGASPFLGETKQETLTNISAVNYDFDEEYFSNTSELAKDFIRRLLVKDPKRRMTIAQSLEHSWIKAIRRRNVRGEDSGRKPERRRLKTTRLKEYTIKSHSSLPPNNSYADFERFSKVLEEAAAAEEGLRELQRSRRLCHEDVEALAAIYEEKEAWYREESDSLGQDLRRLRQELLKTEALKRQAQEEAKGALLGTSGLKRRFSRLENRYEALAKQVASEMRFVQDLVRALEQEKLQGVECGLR

[14] = target: CAMK2D (Homo sapiens, UniProt Q13557)
[15] = target: CLK3 (Homo sapiens, UniProt P49761)
Chain of CLK3 (P49761 whole entry): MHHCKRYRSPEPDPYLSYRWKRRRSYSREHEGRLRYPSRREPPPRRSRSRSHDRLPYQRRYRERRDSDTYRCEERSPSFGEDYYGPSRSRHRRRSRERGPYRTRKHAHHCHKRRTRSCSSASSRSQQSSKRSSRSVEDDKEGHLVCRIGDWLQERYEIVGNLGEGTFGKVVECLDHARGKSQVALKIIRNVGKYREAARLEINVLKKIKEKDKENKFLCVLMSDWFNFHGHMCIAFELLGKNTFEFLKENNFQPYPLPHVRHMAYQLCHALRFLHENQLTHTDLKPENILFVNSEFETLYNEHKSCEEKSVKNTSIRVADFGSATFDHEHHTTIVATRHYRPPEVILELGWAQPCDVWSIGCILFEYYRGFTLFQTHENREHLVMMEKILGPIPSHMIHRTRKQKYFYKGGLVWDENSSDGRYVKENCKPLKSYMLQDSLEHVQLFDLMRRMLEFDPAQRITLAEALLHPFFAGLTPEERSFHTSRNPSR

[16] = target: ABL1(H396P)-phosphorylated (Homo sapiens, UniProt P00519, H396P)
[17] = target: ABL1(Y253F)-phosphorylated (Homo sapiens, UniProt P00519, Y253F)
[18] = target: JAK1(JH2domain-pseudokinase) (Homo sapiens, UniProt P23458)
[19] = target: GCN2(Kin.Dom.2,S808G) (Homo sapiens, UniProt Q9P2K8, S808G)
[20] = target: RET (Homo sapiens, UniProt P07949)
Chain of RET (P07949 whole entry): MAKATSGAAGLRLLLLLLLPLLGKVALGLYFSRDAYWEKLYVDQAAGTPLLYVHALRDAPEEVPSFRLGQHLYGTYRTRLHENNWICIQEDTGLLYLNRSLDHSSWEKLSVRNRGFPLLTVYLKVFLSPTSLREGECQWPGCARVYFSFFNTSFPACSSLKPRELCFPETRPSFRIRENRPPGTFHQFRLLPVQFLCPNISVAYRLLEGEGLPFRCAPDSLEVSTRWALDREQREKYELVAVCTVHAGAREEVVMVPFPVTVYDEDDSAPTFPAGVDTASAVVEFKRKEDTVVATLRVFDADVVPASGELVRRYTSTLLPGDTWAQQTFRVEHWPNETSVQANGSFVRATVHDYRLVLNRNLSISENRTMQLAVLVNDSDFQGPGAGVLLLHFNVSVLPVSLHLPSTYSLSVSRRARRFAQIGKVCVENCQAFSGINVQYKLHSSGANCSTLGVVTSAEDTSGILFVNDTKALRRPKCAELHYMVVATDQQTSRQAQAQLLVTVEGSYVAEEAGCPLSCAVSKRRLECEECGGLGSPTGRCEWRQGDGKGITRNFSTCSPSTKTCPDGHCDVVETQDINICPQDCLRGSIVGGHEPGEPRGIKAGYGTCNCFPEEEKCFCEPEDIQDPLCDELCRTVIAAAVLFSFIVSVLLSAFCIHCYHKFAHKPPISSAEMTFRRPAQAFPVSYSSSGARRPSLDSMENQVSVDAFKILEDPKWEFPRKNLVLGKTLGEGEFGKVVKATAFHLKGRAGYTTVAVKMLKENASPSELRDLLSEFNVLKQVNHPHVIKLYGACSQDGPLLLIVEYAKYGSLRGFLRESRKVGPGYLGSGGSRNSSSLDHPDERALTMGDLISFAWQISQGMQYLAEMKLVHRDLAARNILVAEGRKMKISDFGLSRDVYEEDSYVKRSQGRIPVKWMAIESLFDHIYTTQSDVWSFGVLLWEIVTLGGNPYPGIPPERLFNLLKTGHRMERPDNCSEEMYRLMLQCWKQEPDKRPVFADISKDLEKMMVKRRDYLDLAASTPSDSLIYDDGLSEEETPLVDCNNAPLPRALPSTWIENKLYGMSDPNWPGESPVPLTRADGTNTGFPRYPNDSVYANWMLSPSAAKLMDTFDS

[21] = target: ULK2 (Homo sapiens, UniProt Q8IYT8)
[22] = target: WEE2 (Homo sapiens, UniProt P0C1S8)
[23] = target: PLK2 (Homo sapiens, UniProt Q9NYY3)
[24] = target: YANK2 (Homo sapiens, UniProt Q9NY57)
[25] = target: ABL1(Q252H)-nonphosphorylated (Homo sapiens, UniProt P00519, Q252H)
[26] = target: ABL1(F317L)-nonphosphorylated (Homo sapiens, UniProt P00519, F317L)
[27] = target: KIT(V559D,V654A) (Homo sapiens, UniProt P10721, V559D/V654A)
[28] = target: ABL1(T315I)-phosphorylated (Homo sapiens, UniProt P00519, T315I)
[29] = read-out: HYJ-2-002-1 (1uM) % control
[30] = read-out: HYJ-2-002-1 (1μM) % control
[31] = read-out: CPT-1-70-1 (1uM) % control
[32] = read-out: CPT-1-70-1 (1μM) % control

Chain of LTK (P29376 whole entry): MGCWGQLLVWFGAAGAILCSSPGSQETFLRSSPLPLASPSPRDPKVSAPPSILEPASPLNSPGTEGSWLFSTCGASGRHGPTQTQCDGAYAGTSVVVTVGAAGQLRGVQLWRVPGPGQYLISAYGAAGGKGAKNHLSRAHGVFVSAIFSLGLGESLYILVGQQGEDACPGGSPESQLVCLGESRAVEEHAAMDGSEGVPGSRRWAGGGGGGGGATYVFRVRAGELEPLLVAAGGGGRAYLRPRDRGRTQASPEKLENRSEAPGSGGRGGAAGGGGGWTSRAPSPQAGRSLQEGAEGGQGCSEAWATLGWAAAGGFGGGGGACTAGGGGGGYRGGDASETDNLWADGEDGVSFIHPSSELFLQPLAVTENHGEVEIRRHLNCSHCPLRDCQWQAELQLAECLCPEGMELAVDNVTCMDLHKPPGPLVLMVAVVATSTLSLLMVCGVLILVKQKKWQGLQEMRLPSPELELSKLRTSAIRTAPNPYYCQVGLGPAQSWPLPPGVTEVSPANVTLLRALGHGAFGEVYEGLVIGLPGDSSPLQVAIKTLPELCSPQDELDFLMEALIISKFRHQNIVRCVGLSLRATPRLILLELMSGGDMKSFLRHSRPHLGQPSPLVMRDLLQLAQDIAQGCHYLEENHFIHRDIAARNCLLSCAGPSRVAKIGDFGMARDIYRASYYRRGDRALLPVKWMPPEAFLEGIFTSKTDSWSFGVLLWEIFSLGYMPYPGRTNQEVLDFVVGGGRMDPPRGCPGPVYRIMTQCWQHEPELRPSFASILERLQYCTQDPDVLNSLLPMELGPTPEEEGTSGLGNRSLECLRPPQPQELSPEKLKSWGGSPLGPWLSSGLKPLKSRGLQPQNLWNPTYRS
Chain of STK33 (Q9BYT3 whole entry): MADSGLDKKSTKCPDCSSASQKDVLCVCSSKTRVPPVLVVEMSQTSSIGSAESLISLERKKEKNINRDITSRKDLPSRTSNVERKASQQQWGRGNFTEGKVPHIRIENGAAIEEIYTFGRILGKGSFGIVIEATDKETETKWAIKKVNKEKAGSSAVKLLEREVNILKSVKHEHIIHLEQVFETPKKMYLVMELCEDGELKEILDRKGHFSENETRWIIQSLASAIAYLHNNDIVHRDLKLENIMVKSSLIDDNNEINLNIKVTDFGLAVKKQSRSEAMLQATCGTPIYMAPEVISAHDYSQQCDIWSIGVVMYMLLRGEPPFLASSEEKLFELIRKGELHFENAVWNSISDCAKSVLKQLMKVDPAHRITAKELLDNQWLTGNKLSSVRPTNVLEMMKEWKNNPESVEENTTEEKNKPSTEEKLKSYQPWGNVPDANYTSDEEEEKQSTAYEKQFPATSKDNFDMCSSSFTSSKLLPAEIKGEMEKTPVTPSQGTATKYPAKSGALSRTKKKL

CCN1CCN(Cc2ccc(NC(=O)c3ccc(C)c(CCc4cnc5[nH]ccc5c4OC)c3)cc2C(F)(F)F)CC1 [HYJ-2-002-1]
remaining activity at 1 µM [1, 29]: 0.85%
remaining activity at 1 µM [2, 29]: 57%
remaining activity at 1 µM [3, 29]: 76%
remaining activity at 1 µM [4, 29]: 89%
remaining activity at 1 µM [5, 30]: 66%
remaining activity at 1 µM [6, 29]: 0.05%
remaining activity at 1 µM [7, 29]: 2.4%
remaining activity at 1 µM [8, 29]: 76%
remaining activity at 1 µM [9, 29]: 7.3%
remaining activity at 1 µM [10, 29]: 1.4%
remaining activity at 1 µM [11, 29]: 100%
remaining activity at 1 µM [12, 29]: 0%
remaining activity at 1 µM [13, 29]: 100%
remaining activity at 1 µM [14, 29]: 100%
remaining activity at 1 µM [15, 29]: 88%
remaining activity at 1 µM [16, 29]: 0.1%
remaining activity at 1 µM [17, 29]: 0.7%
remaining activity at 1 µM [18, 29]: 93%
remaining activity at 1 µM [19, 29]: 14%
remaining activity at 1 µM [20, 30]: 0.15%
remaining activity at 1 µM [21, 30]: 88%
remaining activity at 1 µM [22, 30]: 21%
remaining activity at 1 µM [23, 30]: 100%
remaining activity at 1 µM [24, 30]: 100%
remaining activity at 1 µM [25, 29]: 0.05%
remaining activity at 1 µM [26, 29]: 0%
remaining activity at 1 µM [27, 29]: 28%
remaining activity at 1 µM [28, 29]: 0.75%

CN1CCN(c2ccc(Nc3nc(Oc4ccc(NC(=O)CCl)cc4)c4cc[nH]c4n3)cc2)CC1 [CPT1-70-1]
remaining activity at 1 µM [1, 31]: 86%
remaining activity at 1 µM [2, 31]: 1.2%
remaining activity at 1 µM [3, 31]: 79%
remaining activity at 1 µM [4, 31]: 100%
remaining activity at 1 µM [5, 32]: 10%
remaining activity at 1 µM [6, 31]: 25%
remaining activity at 1 µM [7, 31]: 0%
remaining activity at 1 µM [8, 31]: 93%
remaining activity at 1 µM [9, 31]: 10%
remaining activity at 1 µM [10, 31]: 100%
remaining activity at 1 µM [11, 31]: 62%
remaining activity at 1 µM [12, 31]: 15%
remaining activity at 1 µM [13, 31]: 59%
remaining activity at 1 µM [14, 31]: 100%
remaining activity at 1 µM [15, 31]: 82%
remaining activity at 1 µM [16, 31]: 100%
remaining activity at 1 µM [17, 31]: 100%
remaining activity at 1 µM [18, 31]: 0.75%
remaining activity at 1 µM [19, 31]: 13%
remaining activity at 1 µM [20, 32]: 25%
remaining activity at 1 µM [21, 32]: 29%
remaining activity at 1 µM [22, 32]: 100%
remaining activity at 1 µM [23, 32]: 78%
remaining activity at 1 µM [24, 32]: 100%
remaining activity at 1 µM [25, 31]: 52%
remaining activity at 1 µM [26, 31]: 100%
remaining activity at 1 µM [27, 31]: 100%
remaining activity at 1 µM [28, 31]: 19%
